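In this assay, cells in 96-well plates receive the compound at five concentrations for 48 hours. Endpoints are linearly interpolated between the surrounding concentrations. GI50 = concentration required for 50% inhibition of growth.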 The source made the active and inactive calls. Cut-off read from the data, not from the text of the source: active = GI50 up to about 1.1 µM and inactive = higher.
What was measured:
Test in all cases: growth of human tumour cells (NCI), 48 h
BT-549 = test system: BT-549
HCT-15 = test system: HCT-15
Hs-578T = test system: Hs-578T
KM12 = test system: KM12
M14 = test system: M14
MDA-MB-231 = test system: MDA-MB-231
MOLT-4 = test system: MOLT-4
NCI-H226 = test system: NCI-H226
NCI-H23 = test system: NCI-H23
NCI/ADR-RES = test system: NCI/ADR-RES
OVCAR-4 = test system: OVCAR-4
SF-268 = test system: SF-268
SF-295 = test system: SF-295
SF-539 = test system: SF-539
SK-MEL-5 = test system: SK-MEL-5
SNB-75 = test system: SNB-75
SR = test system: SR
HCT-116 = test system: HCT-116
SN12C = test system: SN12C

SMILES	GI50 (BT-549)	GI50 (HCT-15) [µM]	GI50 (Hs-578T)	GI50 (KM12)	GI50 (M14)	GI50 (MDA-MB-231)	GI50 (MOLT-4)	GI50 (NCI-H226)	GI50 (NCI-H23)	GI50 (NCI/ADR-RES)	GI50 (OVCAR-4)	GI50 (SF-268)	GI50 (SF-295)	GI50 (SF-539)	GI50 (SK-MEL-5)	GI50 (SNB-75)	GI50 (SR)	GI50 (HCT-116)	GI50 (SN12C)
CCOc1cc2c(c(OCC)c1O)CC[C@@H]1[C@@H]2CC[C@]2(C)[C@@H](O)CC[C@@H]12	0.418 µM (active)	0.289	4.68 µM (inactive)	6.03 µM (inactive)	3.05 µM (inactive)	2.62 µM (inactive)	0.681 µM (active)	15.9 µM (inactive)	4.2 µM (inactive)	3.23 µM (inactive)	51.8 µM (inactive)	4.79 µM (inactive)	0.693 µM (active)	1.48 µM (inactive)	1.21 µM (inactive)	0.587 µM (active)	0.331 µM (active)	–	–
COc1ccc(OC)c2sc(N3C(=O)/C(=C/Cc4ccco4)N=C3c3ccccc3)nc12	50.2 µM (inactive)	42.7	42.2 µM (inactive)	38.8 µM (inactive)	37.6 µM (inactive)	> 100 µM (inactive)	17.9 µM (inactive)	–	–	63.1 µM (inactive)	32 µM (inactive)	34 µM (inactive)	73.1 µM (inactive)	53.5 µM (inactive)	21.2 µM (inactive)	24.7 µM (inactive)	19.4 µM (inactive)	27.3 µM (inactive)	33.3 µM (inactive)
N/C(=N\Nc1ccc(S(N)(=O)=O)cc1)c1cnccn1	> 100 µM (inactive)	> 100	> 100 µM (inactive)	> 100 µM (inactive)	> 100 µM (inactive)	> 100 µM (inactive)	> 100 µM (inactive)	> 100 µM (inactive)	> 100 µM (inactive)	> 100 µM (inactive)	> 100 µM (inactive)	> 100 µM (inactive)	> 100 µM (inactive)	–	> 100 µM (inactive)	> 100 µM (inactive)	> 100 µM (inactive)	> 100 µM (inactive)	> 100 µM (inactive)
CCN(CCN(CC)C(=O)Nc1ccccc1)C(=O)Nc1ccccc1	> 100 µM (inactive)	> 100	> 100 µM (inactive)	–	> 100 µM (inactive)	> 100 µM (inactive)	> 100 µM (inactive)	> 100 µM (inactive)	> 100 µM (inactive)	> 100 µM (inactive)	–	> 100 µM (inactive)	> 100 µM (inactive)	–	> 100 µM (inactive)	> 100 µM (inactive)	> 100 µM (inactive)	> 100 µM (inactive)	> 100 µM (inactive)
COC(=O)c1ccccc1C#CC#Cc1ccccc1C(=O)OC	> 10 µM (inactive)	7.35	> 10 µM (inactive)	3.19 µM (inactive)	> 10 µM (inactive)	> 10 µM (inactive)	> 10 µM (inactive)	5.48 µM (inactive)	> 10 µM (inactive)	> 10 µM (inactive)	2.9 µM (inactive)	> 10 µM (inactive)	> 10 µM (inactive)	> 10 µM (inactive)	> 10 µM (inactive)	–	> 10 µM (inactive)	> 10 µM (inactive)	> 10 µM (inactive)
O=C1NC(Cc2c[nH]c3ccccc23)C(=O)N2C(c3ccccc3)c3[nH]c4ccccc4c3C[C@@H]12 (stereo partly specified)	21.1 µM (inactive)	21.7	16.5 µM (inactive)	19.3 µM (inactive)	21.6 µM (inactive)	20.6 µM (inactive)	12.6 µM (inactive)	35.6 µM (inactive)	27.7 µM (inactive)	21.6 µM (inactive)	26.9 µM (inactive)	26.1 µM (inactive)	15.3 µM (inactive)	–	17.5 µM (inactive)	–	12.8 µM (inactive)	15.4 µM (inactive)	16.4 µM (inactive)
C[C@@H](c1ccccc1)n1c(N)c(-c2ccccn2)c2ccc([N+](=O)[O-])cc2c1=O	44.1 µM (inactive)	86.1	26.9 µM (inactive)	67.9 µM (inactive)	–	86.3 µM (inactive)	–	36.6 µM (inactive)	54.6 µM (inactive)	26.9 µM (inactive)	80.2 µM (inactive)	> 100 µM (inactive)	–	–	25.7 µM (inactive)	12.8 µM (inactive)	32.6 µM (inactive)	79.4 µM (inactive)	98.2 µM (inactive)
O=c1/c(=C/c2ccc(-c3ccc(Cl)cc3Cl)o2)sc2n1[C@@H](c1ccc3c(c1)OCO3)C=C(c1cc(F)c(Cl)cc1Cl)N=2	37.8 µM (inactive)	34.1	14 µM (inactive)	57.5 µM (inactive)	28 µM (inactive)	22.6 µM (inactive)	28.2 µM (inactive)	20.7 µM (inactive)	38.5 µM (inactive)	45.9 µM (inactive)	33.3 µM (inactive)	46.3 µM (inactive)	40.7 µM (inactive)	35.3 µM (inactive)	28.5 µM (inactive)	> 100 µM (inactive)	–	35.4 µM (inactive)	57.3 µM (inactive)

Reference: ChEMBL document CHEMBL1201862, “PubChem BioAssay data set” (2004)
